Data published in patent US9457004B2, “Opsin-binding ligands, compositions and methods of use” (priority 2011, dated 2016).

Test system: P23H opsin
Assay: Rhodopsin purification and regeneration (P23H cells treated with compound, regenerated with 9-cis-retinal, 480-500 nm absorbance)
Conditions: FIG. 1; P23H opsin treated with 20 μM during mutant protein production, relative to vehicle (DMSO) alone

CC(=O)/C=C/C1=C(C)CCCC1(C)C [β-ionone, reference compound]
regeneration of 500 nm absorbing pigment upon treatment with retinal: increase
